Experimental data: ChEMBL document CHEMBL5726170, “Histone demethylase inhibitors” (2019)

assay: JMJD2C Assay: The ability of test compounds to inhibit the activity of JMJD2C was determined in 384-well plate format under the following reaction conditions: 0.3 nM JMJD2C, 300 nM H3K9me3-biotin labeled peptide (Anaspec cat #64360), 2 μM alpha-ketoglutaric acid in assay buffer of 50 mM HEPES, pH7.3, 0.005% Brij35, 0.5 mM TCEP, 0.2 mg/ml BSA, 50 μM sodium L-ascorbate, and 2 μM ammonium iron(II) sulfate. Reaction product was determined quantitatively by TR-FRET after the addition of detection reagent Phycolink Streptavidin-allophycocyanin (Prozyme) and Europium-anti-di-methylated histone H3 lysine 9 (H3K9me2) antibody (PerkinElmer) in the presence of 5 mM EDTA in LANCE detection buffer (PerkinElmer) at a final concentration of 50 nM and 1 nM, respectively.The assay reaction was initiated by the following: 2 μl of the mixture of 900 nM H3K9me3-biotin labeled peptide and 6 μM alpha-ketoglutaric acid with 2 μl of 11-point serial diluted inhibitor in 3% DMSO were added to each well of the plate, followed by the addition of 2 μl of 0.9 nM JMJD2C to initiate the reaction. The reaction mixture was incubated at room temperature for 30 min, and terminated by the addition of 6 μl of 5 mM EDTA in LANCE detection buffer containing 100 nM Phycolink Streptavidin-allophycocyanin and 2 nM Europium-anti-H3K9me2 antibody. Plates were read by EnVisionMultilabel Reader in TR-FRET mode (excitation at 320 nm, emission at 615 nm and 665 nm) after 1 hr incubation at rt. A ratio was calculated (665/615) for each well and fitted to determine inhibition constant (IC50).

Q: For `O=C(O)c1ccncc1NCC1CCOc2cc(F)ccc21` (centres undefined), which IC50 is on record?
A: The IC50 was “in the range around 0.55 µM”.

Q: For `O=C(O)c1ccncc1NCC1CCCc2cc(OC(F)(F)F)ccc21` (centres undefined), which IC50 is on record?
A: The IC50 was “in the range around 5.5 µM”.

Q: With `O=C(O)c1ccncc1NCC1CCCc2c(OCC3CC3)cccc21` (centres undefined) as the compound, how does the IC50 read?
A: The IC50 was “in the range around 5.5 µM”.

Q: With `O=C(O)c1ccncc1NCC1CCCc2c(Oc3ccccc3)cccc21` (centres undefined) as the compound, how does the IC50 read?
A: Its IC50 is “in the range around 5.5 µM”.
